This is an account of results in article PMC6941144 (ACS chemical biology, 2019).

Assay [1] deals with HIV-1 protease 9Mut-L76V (Human immunodeficiency virus type 1 group M subtype B, UniProt P12497, G504E/I501V/I572V/K533I/L521F/L564V/M534I/Q495K/V520I/V570F). As to conditions: relative to 8Mut; ΔG = RTln[Ki].
The subject of assay [2] is HIV-1 protease 2Mut (V82F, I84V). Put plainly: Enzyme inhibition. As to conditions: primary active site mutations (2 mutations); abstract. The class given is biochemical.
Assay [3] has as its target HIV-1 protease 11Mut (Human immunodeficiency virus type 1 group M subtype B, UniProt P12497, A559V/G504E/I501V/I542L/I572V/K533I/L521F/L564V/M534I/Q495K/V520I/V570F). The note with it: 11Mut vs WT.
Assay [4] has as its target HIV-1 protease 9Mut-A71V (Human immunodeficiency virus type 1 group M subtype B, UniProt P12497, A559V/G504E/I501V/I572V/K533I/L521F/M534I/Q495K/V520I/V570F). As to conditions: relative to 8Mut; ΔG = RTln[Ki].
The target in assay [5] is HIV-1 protease 10Mut (Human immunodeficiency virus type 1 group M subtype B, UniProt P12497, A559V/G504E/I501V/I572V/K533I/L521F/L564V/M534I/Q495K/V520I/V570F). As to conditions: relative to 8Mut; ΔG = RTln[Ki].

Take `CC(C)CN(C[C@@H](O)[C@H](Cc1ccccc1)NC(=O)O[C@H]1CO[C@H]2OCC[C@H]21)S(=O)(=O)c1ccc(N)cc1` [DRV, Darunavir]: in assay [1], the “ΔΔG9Mut-L76V (change in free energy of inhibitor binding)” value came to 1.55 ± 0.10 kcal/mol. The loss in potency in assay [2] is on record as ~ 50 fold. Further, the “decrease in inhibition compared to WT” value in assay [3] was 152,000 fold. In assay [4], the “ΔΔG9Mut-A71V (change in free energy of inhibitor binding)” value worked out at 0.35 ± 0.07 kcal/mol. Besides, the “ΔΔG10Mut (change in free energy of inhibitor binding)” value in assay [5] came out at 1.45 ± 0.05 kcal/mol.
